Source: PubChem BioAssay (NCI)
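Following 48 hours of exposure in 96-well plates, responses at five concentrations were used to interpolate endpoints linearly. TGI: total growth inhibition.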

Assays:
Assay in all cases: DTP human tumour cell line panel, 48 h
[1] = test system: SNB-19 CNS
[2] = test system: KM20L2 colon
[3] = test system: COLO 205 colon
[4] = test system: SN12C renal
[5] = test system: A549 NSCLC
[6] = test system: SK-MEL-2 melanoma
[7] = test system: MALME-3M melanoma
[8] = test system: HT29 colon
[9] = test system: OVCAR-3 ovarian
[10] = test system: SF-295 CNS
[11] = test system: OVCAR-4 ovarian
[12] = test system: EKVX NSCLC
[13] = test system: SF-268 CNS
[14] = test system: RXF 393 renal
[15] = test system: SK-OV-3 ovarian
[16] = test system: DMS 114 small cell lung
[17] = test system: K-562 leukemia
[18] = test system: HOP-62 NSCLC
[19] = test system: NCI-H460 lung
[20] = test system: OVCAR-8 ovarian
[21] = test system: NCI-H23 lung
[22] = test system: UO-31 renal
[23] = test system: XF 498 CNS
[24] = test system: HCT-116 colon
[25] = test system: NCI-H522 lung
[26] = test system: LXFL 529 NSCLC
[27] = test system: HOP-92 NSCLC
[28] = test system: UACC-257 melanoma
[29] = test system: SK-MEL-28 melanoma
[30] = test system: U251 CNS
[31] = test system: MOLT-4 leukemia
[32] = test system: TK-10 renal
[33] = test system: OVCAR-5 ovarian
[34] = test system: HL-60(TB) leukemia
[35] = test system: KM12 colon
[36] = test system: IGROV1 ovarian
[37] = test system: M19-MEL melanoma
[38] = test system: SR leukemia
[39] = test system: RPMI-8226 leukemia
[40] = test system: SK-MEL-5 melanoma
[41] = test system: M14 melanoma
[42] = test system: SW-620 colon
[43] = test system: CCRF-CEM leukemia
[44] = test system: UACC-62 melanoma
[45] = test system: NCI-H226 lung
[46] = test system: SNB-75 CNS
[47] = test system: HCT-15 colon
[48] = test system: ACHN renal
[49] = test system: LOX IMVI melanoma
[50] = test system: SNB-78 CNS
[51] = test system: A498 renal
[52] = test system: DLD-1 colon
[53] = test system: 786-0 renal
[54] = test system: CAKI-1 renal
[55] = test system: DMS 273 small cell lung
[56] = test system: SF-539 CNS
[57] = test system: HOP-18 NSCLC
[58] = test system: HCC-2998 colon

SMILES: COc1cccc(N2C(Cl)C(=O)C2c2c[nH]c3ccccc23)c1 (stereo unspecified)
- TGI [1]: > 100 µM
- TGI [2]: > 100 µM
- TGI [3]: > 100 µM
- TGI [4]: > 100 µM
- TGI [5]: > 100 µM
- TGI [6]: > 100 µM
- TGI [7]: > 100 µM
- TGI [8]: > 100 µM
- TGI [9]: > 100 µM
- TGI [10]: > 100 µM
- TGI [11]: > 100 µM
- TGI [12]: > 100 µM
- TGI [13]: > 100 µM
- TGI [14]: > 100 µM
- TGI [15]: > 100 µM
- TGI [16]: > 100 µM
- TGI [17]: > 100 µM
- TGI [18]: > 100 µM
- TGI [19]: > 100 µM
- TGI [20]: > 100 µM
- TGI [21]: > 100 µM
- TGI [22]: > 100 µM
- TGI [23]: > 100 µM
- TGI [24]: > 100 µM
- TGI [25]: > 100 µM
- TGI [26]: > 100 µM
- TGI [27]: > 100 µM
- TGI [28]: > 100 µM
- TGI [29]: > 100 µM
- TGI [30]: > 100 µM
- TGI [31]: > 100 µM
- TGI [32]: > 100 µM
- TGI [33]: > 100 µM
- TGI [34]: > 100 µM
- TGI [35]: > 100 µM
- TGI [36]: > 100 µM
- TGI [37]: > 100 µM
- TGI [38]: > 100 µM
- TGI [39]: > 100 µM
- TGI [40]: > 100 µM
- TGI [41]: > 100 µM
- TGI [42]: > 100 µM
- TGI [43]: > 100 µM
- TGI [44]: > 100 µM

SMILES: Cc1c2n(c(=O)[nH]c1=O)C1OC(CO)C(N=[N+]=[N-])C1O2 (stereo unspecified)
- TGI [45]: > 100 µM
- TGI [1]: > 100 µM
- TGI [2]: > 100 µM
- TGI [3]: > 100 µM
- TGI [46]: > 100 µM
- TGI [4]: > 100 µM
- TGI [5]: > 100 µM
- TGI [6]: > 100 µM
- TGI [47]: > 100 µM
- TGI [8]: > 100 µM
- TGI [9]: > 100 µM
- TGI [10]: > 100 µM
- TGI [11]: > 100 µM
- TGI [48]: > 100 µM
- TGI [12]: > 100 µM
- TGI [13]: > 100 µM
- TGI [14]: > 100 µM
- TGI [15]: > 100 µM
- TGI [16]: > 100 µM
- TGI [17]: > 100 µM
- TGI [18]: > 100 µM
- TGI [19]: > 100 µM
- TGI [20]: > 100 µM
- TGI [21]: > 100 µM
- TGI [22]: > 100 µM
- TGI [24]: > 100 µM
- TGI [49]: > 100 µM
- TGI [25]: > 100 µM
- TGI [50]: > 100 µM
- TGI [26]: > 100 µM
- TGI [27]: > 100 µM
- TGI [28]: > 100 µM
- TGI [29]: > 100 µM
- TGI [30]: > 100 µM
- TGI [31]: > 100 µM
- TGI [32]: > 100 µM
- TGI [34]: > 100 µM
- TGI [51]: > 100 µM
- TGI [35]: > 100 µM
- TGI [36]: > 100 µM
- TGI [37]: > 100 µM
- TGI [52]: > 100 µM
- TGI [38]: > 100 µM
- TGI [39]: > 100 µM
- TGI [53]: > 100 µM
- TGI [40]: > 100 µM
- TGI [54]: > 100 µM
- TGI [42]: > 100 µM
- TGI [55]: > 100 µM
- TGI [43]: > 100 µM
- TGI [44]: > 100 µM
- TGI [56]: > 100 µM

SMILES: CC1=Cc2cccc(C)c2C(=O)C1=O
- TGI [45]: 30.5 µM
- TGI [1]: 45.3 µM
- TGI [2]: 35.5 µM
- TGI [3]: 3.49 µM
- TGI [46]: 29.9 µM
- TGI [4]: 37.2 µM
- TGI [5]: 25.1 µM
- TGI [6]: 31.9 µM
- TGI [7]: 3.26 µM
- TGI [47]: 16.4 µM
- TGI [8]: 32.3 µM
- TGI [9]: 6.78 µM
- TGI [10]: 11.1 µM
- TGI [11]: 10.1 µM
- TGI [12]: 24.5 µM
- TGI [57]: 2.79 µM
- TGI [13]: 25.9 µM
- TGI [14]: 8.85 µM
- TGI [15]: 36.8 µM
- TGI [18]: 30.2 µM
- TGI [19]: 41.9 µM
- TGI [20]: 41.7 µM
- TGI [21]: 32.8 µM
- TGI [22]: 27.1 µM
- TGI [23]: 9.65 µM
- TGI [24]: 6.88 µM
- TGI [49]: 21.5 µM
- TGI [25]: 9.87 µM
- TGI [50]: > 100 µM
- TGI [26]: 5.27 µM
- TGI [27]: 2.92 µM
- TGI [28]: 4.72 µM
- TGI [58]: 27.8 µM
- TGI [29]: 31.5 µM
- TGI [30]: 41 µM
- TGI [32]: 4.75 µM
- TGI [33]: 34.2 µM
- TGI [34]: 1.37 µM
- TGI [51]: 30.9 µM
- TGI [35]: 19.7 µM
- TGI [36]: 29.2 µM
- TGI [37]: 23.6 µM
- TGI [52]: 4.32 µM
- TGI [39]: 4.36 µM
- TGI [53]: 6.96 µM
- TGI [40]: 10.7 µM
- TGI [54]: 32.5 µM
- TGI [41]: 9.54 µM
- TGI [42]: 10.3 µM
- TGI [55]: 38.2 µM
- TGI [44]: 10.7 µM
- TGI [56]: 15.5 µM

SMILES: O=C(O)COc1ccccc1C(=O)Nc1ccccc1
- TGI [45]: > 100 µM
- TGI [1]: > 100 µM
- TGI [2]: > 100 µM
- TGI [3]: > 100 µM
- TGI [46]: > 100 µM
- TGI [4]: > 100 µM
- TGI [5]: > 100 µM
- TGI [6]: > 100 µM
- TGI [7]: > 100 µM
- TGI [47]: > 100 µM
- TGI [8]: > 100 µM
- TGI [9]: > 100 µM
- TGI [10]: > 100 µM
- TGI [11]: > 100 µM
- TGI [48]: > 100 µM
- TGI [12]: > 100 µM
- TGI [13]: > 100 µM
- TGI [15]: > 100 µM
- TGI [17]: > 100 µM
- TGI [18]: > 100 µM
- TGI [19]: > 100 µM
- TGI [20]: > 100 µM
- TGI [21]: > 100 µM
- TGI [22]: > 100 µM
- TGI [23]: > 100 µM
- TGI [24]: > 100 µM
- TGI [49]: > 100 µM
- TGI [25]: > 100 µM
- TGI [50]: > 100 µM
- TGI [26]: > 100 µM
- TGI [27]: > 100 µM
- TGI [28]: > 100 µM
- TGI [29]: > 100 µM
- TGI [30]: > 100 µM
- TGI [31]: > 100 µM
- TGI [32]: > 100 µM
- TGI [33]: > 100 µM
- TGI [34]: > 100 µM
- TGI [35]: > 100 µM
- TGI [36]: > 100 µM
- TGI [37]: > 100 µM
- TGI [52]: > 100 µM
- TGI [38]: > 100 µM
- TGI [39]: > 100 µM
- TGI [53]: > 100 µM
- TGI [40]: > 100 µM
- TGI [54]: > 100 µM
- TGI [41]: > 100 µM
- TGI [42]: > 100 µM
- TGI [55]: > 100 µM
- TGI [43]: > 100 µM
- TGI [44]: > 100 µM
- TGI [56]: > 100 µM
